What was measured:
[1] = system: chick embryos; conditions: in ovo, highest concentrations tested, 50µM
From the text: • 1. M. Hammerschmidt, A. Brook, A. P. McMahon, Trends Genet, 13, 14-21 (1997). • 2. C. Chiang, et al., Nature, 383,407-413 (1996). • 3. Y. Tanabe, T. M. Jessell, Science 274, 1115-1123 (1996). • 4. T. P. Yamaguchi, Curr. Opin. Genet. Dev. 7, 513-518 (1997). • 5. N. Shubin, C. Tabin, S. Carroll, Nature 388, 639-648 (1997). • 6. A. E. Oro, et al., Science 276, 817-821 (1997). • 7. M. M. Cohen, K. K. Sulik, J. Craniofac. Genet. Deve. Biol. 12, 196-244 (1992). • 8. E. Belloni, et al., Nature Genet. 14, 353-356 (1996). • 9. E. Roessler, et al., Nature Genet. 14, 357-360 (1996). • 10. J. A. Porter, et al., Nature 374, 363-366 (1995). • 11. J. A. Porter, K. E. Young, P. A. Beacy, Science 274, 255-259 (1996b). • 12. J. J. Lee, et al., Science 266, 1528-1537 (1994). • 13. J. A. Porter, et al., Cell 86, 21-34 (1996a). • 14. C. Roux, Arch. Franc. Pediatr. 21, 451-464 (1964). • 15. C. Roux, C. R. Soc. Biol. 160, 1353-1357 (1966). • 16. D. B. Dehart, L. Lanoue, G. S. Tinit, K. K. Sulik, Am J. Med. Genet. 68, 328-337 (1997). • 17. M. Kraml, J. F. Bagli, D. Dvornik, Biochem. and Biophysical Res. Com. 15, 455-457 (1964). • 18. J. Avigan, D. Steinberg, H. E. Vroman, M. J. Thompson, E. Mosettig, J. Biol. Chem 235, 3123-3126 (1960). • 19. R. B. Clayton, A. N. Nelson, I. D. Frantz Jr., J. Lipid Res. 4, 166-178 (1963). • 20. J. Aufenanger, J. Pill, K. Stegmeier, F. H. Schmidt, Horm. Metabol. Res. 17, 612-613 (1986). • 21. […] G. Popjak, A. Meenean, E. J. Parish, W. D. Nes, J. Biol. Chem 264,6230-6238 (1989). • 23. H. Yoshikawa, Brain Deve. 13, 115-120 (1991). • 24. R. I. Kelley, et al., Am. J. Of Med. Gen. 66, 478-484 (1996). • 25. G. S. Tint, et al., New England Journal of Medicine 330, 107-113 (1994). • 26. T.E. Willnow, et al., Proc. Natl. Acad. Sci USA 93, 8460-8464 (1996). • 27. S. Stefansson, D. A. Chappell, K. M. Argraves, D. K. Strickland, W. S. Argraves, J. Biol. Chem. 270, 19417-19421 (1995). • 28. W. Binns, L. F. James, J. L. Shupe, G. Everett, Am. J. Vet. Res. 24, 1164-1174 (1963). • 29. R. F. Keeler, W. Binns, Teratology 1, 5-10 (1968). • 30. P. A. Beachy, et al., CSH Symp. Quant. Biol. 62, in press (1997). • 31. […]

[2] = system: Ptc -/- MEFs; assay: β-galactosidase activity in ptc-lacZ mouse embryonic fibroblasts; format: cell-based; conditions: Ptc -/- MEFs 21-4, 16 hours (Figure 15)
From the text: These studies involve the use of mouse embryonic fibroblasts (MEFs) that were generated by trypsin digestion of E8.5 embryos from patched (ptc) +/- matings.
The MEF line 23-4 is heterozygous for ptc-lacZ, and thus contains one functional ptc allele capable of maintaining a repressed state of the pathway, but will express lacZ when the pathway is activated by addition of Shh protein (see Figure 12).

| Structure (SMILES) | embryos displayed normal morphology [1] | reduction of β-galactosidase activity [2] |
| --- | --- | --- |
| CC1=C2C[C@H]3[C@@H](CC=C4C[C@@H](O)CC[C@@]43C)[C@@H]2CC[C@]12O[C@@H]1C[C@H](C)CN[C@H]1[C@H]2C [Cyclopamine, cyclopamine] | 2/10 | – |
| C[C@H]1CC[C@]2(NC1)O[C@H]1C[C@H]3[C@@H]4CC[C@H]5C[C@@H](O)CC[C@]5(C)[C@H]4CC[C@]3(C)[C@H]1[C@@H]2C [Tomatidine, tomatidine] | – | cannot he achieved |
